Consider 3 molecules from patent US20230020999A1, “ANTI-CD30 ANTIBODY-DRUG CONJUGATES AND THEIR USE FOR THE TREATMENT OF HIV INFECTION” (priority 2019, published 2023).

Non-standard residues stand in square brackets, D forms with d. Residues, ends and D or L forms follow the SMILES beside them. *: point of attachment. Dolaproine = CO[C@@H]([C@@H]1CCCN1)[C@@H](C)C(=O)O; Dil = CC[C@H](C)[C@H](NC)[C@@H](CC(=O)O)OC; X1 = C[C@@H](N*)[C@@H](O)c1ccccc1; NMeV = CN[C@H](C(=O)O)C(C)C

One data set deals with CYP3A4 (Homo sapiens, UniProt P08684). The note with it: cited from earlier work.
In data set [1] the target is permeability glycoprotein (Pgp) (Homo sapiens, UniProt P08183). The conditions noted are these: cited from earlier work.
A further data set relates to memory CD8 T cells. Kind of data set: Free MMAE titration on activated T cell populations, viable cell counts. The class given is cell-based. The note with it: Memory CDS; CD3/CD28 beads and IL-2 (10 ng/ml), 4 days; cell counts relative to untreated control. The protocol: (§1) To evaluate the effect of free MMAE on the various T cell populations, naïve (CD45RA+, CD45RO−) and memory (CD45RA−, CD45RO+) CD4 and CD8 T cells and CD25^hi CD127^lo T regulatory cells were enriched from healthy donor leukopaks and activated with CD3/CD28 beads and IL-2 (10 ng/ml) in round-bottom 96-well tissue culture plates for 4 days with a titration of free monomethyl auristatin E (MMAE). […] Data are represented as cell counts relative to untreated control.

In another data set the test system is naïve CD8 T cells. The data set is described as above. The class given is cell-based. The note with it: Naïve CDS; CD3/CD28 beads and IL-2 (10 ng/ml), 4 days; cell counts relative to untreated control. The protocol: as §1
The test system of data set [2] is T regulatory cells (Treg). The data set is described as above. In kind it is cell-based. The note with it: CD3/CD28 beads and IL-2 (10 ng/ml), 4 days, cell counts relative to untreated control. As to the method: as §1
For data set [3], the system named is memory CD4 T cells. Described as above. In kind it is cell-based. The note with it: CD3/CD28 beads and IL-2 (10 ng/ml), 4 days, cell counts relative to untreated control. As to the method:
as §1

The next data set has as its system naïve CD4 T cells. Described as above. In kind it is cell-based. The note with it: CD3/CD28 beads and IL-2 (10 ng/ml), 4 days, cell counts relative to untreated control. As to the method:
as §1

The test system of data set [4] is Hodgkin disease xenograft. The conditions noted are these: SCID mouse xenograft models of Hodgkin disease; cited from earlier work.
A further data set concerns CD30+ cell lines. The note with it: in vitro; cited from earlier work.
Another data set concerns Treg. Kind of data set: Effect of BV on activated T cell viability (FACS). The class given is cell-based. As to the method: (§2) To evaluate the effect of BV on activated T cell viability, naïve, memory, and Treg subsets were driven to proliferate in vitro in the presence of BV or control antibody-drug conjugate (ADC). Briefly, T cell subsets were mixed with CD3/CD28 beads (4:1)+IL-2 10 ng/ml in RPMI 10% FCS and distributed −2.0×10^4 cells/well into a 96-well round-bottom plate. A titration of BV or control IgG-MMAE was added to replicate wells, for a final volume of 200 μl, and plates were incubated at 37° C. for 4 days. On the final day of the assay, cells were stained with Zombie® Aqua Viability Dye and a non-competing monoclonal μCD30-PE (Biolegend) for FACS analysis. […] Cell counts are shown as the percent of untreated control.

Data set [5] concerns memory CD4 T cells. Kind of data set: Effect of BV on activated T cell viability (FACS). In kind it is cell-based. As to the method: as §2
Another data set has as its system Tregs. The note with it: subjects with CD30+ lymphomas; cited from earlier work.
Where [6] appears, read: CD3/CD28 beads + IL-2, BV titration, 4 days, n=4, FIG. 1A.

permeability glycoprotein (Pgp), sequence (P08183 whole entry): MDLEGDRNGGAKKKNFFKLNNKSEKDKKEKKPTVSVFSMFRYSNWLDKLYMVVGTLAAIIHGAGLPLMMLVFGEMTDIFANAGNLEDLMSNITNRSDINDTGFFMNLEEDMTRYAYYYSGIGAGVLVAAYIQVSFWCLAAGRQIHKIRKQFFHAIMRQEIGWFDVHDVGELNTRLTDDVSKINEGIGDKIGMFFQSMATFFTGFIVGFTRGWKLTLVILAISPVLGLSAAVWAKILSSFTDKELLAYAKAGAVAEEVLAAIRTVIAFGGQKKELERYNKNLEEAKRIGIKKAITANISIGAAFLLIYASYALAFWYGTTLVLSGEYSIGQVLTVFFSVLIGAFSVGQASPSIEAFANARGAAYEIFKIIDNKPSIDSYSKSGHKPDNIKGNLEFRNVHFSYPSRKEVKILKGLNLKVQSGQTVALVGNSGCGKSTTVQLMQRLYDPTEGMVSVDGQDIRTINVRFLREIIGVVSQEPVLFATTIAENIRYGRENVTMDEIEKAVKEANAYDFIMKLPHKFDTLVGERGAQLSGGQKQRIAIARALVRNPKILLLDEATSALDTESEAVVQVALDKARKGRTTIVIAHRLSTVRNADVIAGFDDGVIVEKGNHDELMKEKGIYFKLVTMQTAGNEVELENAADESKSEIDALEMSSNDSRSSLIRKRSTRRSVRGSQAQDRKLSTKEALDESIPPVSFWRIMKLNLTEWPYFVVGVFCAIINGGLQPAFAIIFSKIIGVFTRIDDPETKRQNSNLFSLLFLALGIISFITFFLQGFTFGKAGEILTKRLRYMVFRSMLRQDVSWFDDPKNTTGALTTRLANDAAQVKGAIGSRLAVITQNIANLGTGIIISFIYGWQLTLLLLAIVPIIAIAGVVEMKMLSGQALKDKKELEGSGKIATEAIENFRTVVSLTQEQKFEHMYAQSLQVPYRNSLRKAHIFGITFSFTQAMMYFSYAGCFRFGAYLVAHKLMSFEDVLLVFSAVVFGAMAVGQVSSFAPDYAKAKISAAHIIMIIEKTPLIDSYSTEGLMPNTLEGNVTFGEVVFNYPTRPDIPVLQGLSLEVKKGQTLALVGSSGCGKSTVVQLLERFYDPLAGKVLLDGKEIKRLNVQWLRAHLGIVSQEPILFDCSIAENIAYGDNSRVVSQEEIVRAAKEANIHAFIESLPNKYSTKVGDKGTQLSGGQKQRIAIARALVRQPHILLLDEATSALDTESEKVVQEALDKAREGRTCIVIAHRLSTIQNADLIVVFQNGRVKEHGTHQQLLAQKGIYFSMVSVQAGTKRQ
CYP3A4, sequence (P08684 whole entry): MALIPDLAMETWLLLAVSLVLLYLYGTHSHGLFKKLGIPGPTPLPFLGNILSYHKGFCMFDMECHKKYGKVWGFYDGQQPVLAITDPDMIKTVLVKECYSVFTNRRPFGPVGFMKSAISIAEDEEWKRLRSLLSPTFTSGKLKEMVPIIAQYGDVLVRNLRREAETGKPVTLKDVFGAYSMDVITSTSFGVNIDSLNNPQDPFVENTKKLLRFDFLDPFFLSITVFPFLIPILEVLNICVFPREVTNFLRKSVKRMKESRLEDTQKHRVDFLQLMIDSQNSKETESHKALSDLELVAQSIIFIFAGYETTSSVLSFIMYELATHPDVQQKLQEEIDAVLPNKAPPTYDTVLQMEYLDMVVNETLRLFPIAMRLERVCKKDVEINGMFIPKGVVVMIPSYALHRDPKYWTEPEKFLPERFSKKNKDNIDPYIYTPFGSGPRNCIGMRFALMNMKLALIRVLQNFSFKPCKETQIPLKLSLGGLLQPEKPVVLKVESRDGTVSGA

For the molecule `CC[C@H](C)[C@@H]([C@@H](CC(=O)N1CCC[C@H]1[C@H](OC)[C@@H](C)C(=O)N[C@H](C)[C@@H](O)c1ccccc1)OC)N(C)C(=O)[C@@H](NC(=O)[C@@H](NC)C(C)C)C(C)C` [MMAE, monomethyl auristatin E] (H-[NMeV]V[Dil][Dolaproine]-X1), the metabolism entry on CYP3A4 is listed as “primarily metabolized by CYP3A4”. The Pgp substrate entry in [1] was “known Pgp substrate”. Also, the IC50 (as a rule, the midpoint of a concentration-inhibition curve) in the data set with memory CD8 T cells stood at 0.77 nM; with naïve CD8 T cells it was 1.96 nM; in data set [2], 0.43 nM; in the data set on memory CD4 T cells [3] it was 0.55 nM; with naïve CD4 T cells it was 1.13 nM.

In the case of cAC10, in data set [4], the antitumor activity entry is reported as “pronounced antitumor activity”. Also, the “growth of CD30+ cell lines” value in the data set with CD30+ cell lines was “induces growth arrest”.

B1: brentuximab vedotin (conjugate)
VH: QIQLQQSGPEVVKPGASVKISCKASGYTFTDYYITWVKQKPGQGLEWIGWIYPGSGNTKYNEKFKGKATLTVDTSSSTAFMQLSSLTSEDTAVYFCANYGNYWFAYWGQGTQVTVSA
VL: DIVLTQSPASLAVSLGQRATISCKASQSVDFDGDSYMNWYQQKPGQPPKVLIYAASNLESGIPARFSGSGSGTDFTLNIHPVEEEDAATYYCQQSNEDPWTFGGGTKLEIK
On to B1, for which, in the data set on Treg (setting [6]), the “total viable Treg cell numbers” value is reported as “dose-dependent reduction”. Besides, the “numbers of viable CD30+ cells” value is reported as “enhanced depletion” in the data set on Treg (CD30+ Treg, end of 4-day assay, FIG. 1B) and “enhanced depletion” in the data set with memory CD4 T cells [5] (CD30+ memory CD4 T cells, end of 4-day assay, FIG. 1B). Besides, the “total viable memory CD4 T cell numbers” value with memory CD4 T cells [5] (setting [6]) is recorded as “dose-dependent reduction”. In the data set on Tregs, the “change in Tregs” value was “reduction in Tregs”.
